{"source": "paper PMC6607443", "about": "“Systematic identification of recognition motifs for the hub protein LC8” (Life Science Alliance, 2019)", "note": "pKd: −log10 of the molar value. Where no end group is shown, it is not given here."}
{"molecular_target": "LC8 (UniProt P63167)", "sequence (P63167 whole entry, the tested form may be a part)": "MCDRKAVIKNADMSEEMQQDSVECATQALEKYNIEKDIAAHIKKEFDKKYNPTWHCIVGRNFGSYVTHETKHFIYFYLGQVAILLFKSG", "assay": "ITC of synthetic peptides binding to LC8", "details": "Fig 3B; ITC, 25°C, 50 mM NaCl, 50 mM NaPO4, 1 mM NaN3, pH 7.5; single-site model; average of two to three independent experiments; read-out: Kd"}
{"sequence": "ISRMTQTP [RAVL, synthesized to validate previous data]", "pKd": 5.10}
{"sequence": "RNSQTQTD [VP35(EBV), synthesized to validate previous data]", "pKd": 6.10}
{"sequence": "VAQGTQTP [BSN^III, synthesized to validate previous data]", "pKd": 5.28}
{"molecular_target": "LC8 (UniProt P63167)", "assay": "ITC of synthetic peptides binding to LC8", "details": "ITC, 25°C, pH 7.5; single-site model; read-out: Kd"}
{"sequence": "KDGDTQTD [HTATSF1, peptide from HIV Tat-specific factor 1, UniProt O43719, predicted by LC8Pred]", "pKd": 5.00}
{"molecular_target": "LC8 (UniProt P63167)", "assay": "ITC of synthetic peptides binding to LC8", "details": "ITC, 25°C, pH 7.5; strong = Kd fit, weak = heat but not fit (>25 μM)"}
{"sequence": "KDGDTQTD [HTATSF1, peptide from HIV Tat-specific factor 1, UniProt O43719, predicted by LC8Pred]", "binding to LC8 via ITC (in words)": "“strong” binder"}
{"sequence": "KTLTFSGSSQTVTP [QSER1, synthetic peptide from QSER1, UniProt Q2KHR3]", "binding to LC8 via ITC (in words)": "nonbinders"}
{"sequence": "RTSETNTP [NIN, peptide from ninein, UniProt Q8N4C6, predicted by LC8Pred]", "binding to LC8 via ITC (in words)": "bound to LC8"}
{"sequence": "SKTQQTFGSQTECT [TOGARAM1, synthetic peptide from TOGARAM1, UniProt Q9Y4F4]", "binding to LC8 via ITC (in words)": "weak binders"}
{"sequence": "SSTEVQVE [OTOF, peptide from otoferlin, UniProt Q9HC10, predicted by LC8Pred]", "binding to LC8 via ITC (in words)": "bound to LC8"}
{"sequence": "STQTPSPAPASDMP [BSN-shift]", "binding to LC8 via ITC (in words)": "failed to demonstrate even weak binding to LC8"}
{"molecular_target": "LC8 (UniProt P63167)", "assay": "ITC of synthetic peptides binding to LC8", "details": "Table 1, peptides synthesized from phage display hits; ITC, 25°C, 50 mM sodium phosphate, 50 mM NaCl, 1 mM sodium azide, 5 mM β-mercaptoethanol, pH 7.5; 500 μM peptide into 25 μM LC8"}
{"sequence": "AASLIQKMLQTDPTAR [PLK1, synthetic peptide from PLK1, UniProt P53350]", "Binder?": "N"}
{"sequence": "AKESCNMETQTSST [OFD1, synthetic peptide from OFD1, UniProt O75665]", "Binder?": "Y"}
{"sequence": "CLKETLQITQTEVQ [NFYC, synthetic peptide from NFYC, UniProt Q13952]", "Binder?": "N"}
{"sequence": "DDHSGNAQVTQTKFD [DDX1, synthetic peptide from DDX1, UniProt Q92499]", "Binder?": "N"}
{"sequence": "DDNHWTRSTQTTRE [MUC4]", "Binder?": "Y"}
{"sequence": "DDPMYSSQTQTYGD [KCNQ2, synthetic peptide from KCNQ2, UniProt O43526]", "Binder?": "N"}
{"sequence": "DDSGGNATTQTTSD [ROR1, synthetic peptide from ROR1, UniProt Q01973]", "Binder?": "Weak^a (Weak binders are those with affinities >25 μM)"}
{"sequence": "DERLMCTGSQTFDD [EFL1, synthetic peptide from EFL1, UniProt Q7Z2Z2]", "Binder?": "N"}
{"sequence": "EGYRGTANTTTAAYLA [MSTL1, synthetic peptide from MSTL1, UniProt Q2TV78]", "Binder?": "N"}
{"sequence": "ESGDGNTGTQTNGL [POU2F1, synthetic peptide from POU2F1, UniProt P14859]", "Binder?": "N"}
{"sequence": "GQGAALTTATQTTHLE [GP1BA, synthetic peptide from GP1BA, UniProt P07359]", "Binder?": "Weak^a (Weak binders are those with affinities >25 μM)"}
{"sequence": "ITSYNSQGTQLTVE [KY, synthetic peptide from KY, UniProt Q8NBH2]", "Binder?": "N"}
{"sequence": "KHSGRQLTLQHHMG [CUL3, synthetic peptide from CUL3, UniProt Q13618]", "Binder?": "N"}
{"sequence": "KITFTKPSTQTTNT [EMSY, synthetic peptide from EMSY, UniProt Q7Z589]", "Binder?": "N"}
{"sequence": "KTLTFSGSSQTVTP [QSER1, synthetic peptide from QSER1, UniProt Q2KHR3]", "Binder?": "N"}
{"sequence": "LPRKVDTAAQTNSR [IRS1, synthetic peptide from IRS1, UniProt P35568]", "Binder?": "N"}
{"sequence": "LQETLTTSSQANLS [PPP2R3A, synthetic peptide from PPP2R3A, UniProt Q06190]", "Binder?": "N"}
{"sequence": "NQSFLRTPIQRTPH [SAV1, synthetic peptide from SAV1, UniProt Q9H4B6]", "Binder?": "N"}
{"sequence": "PLQATISKSQTNPV [UBN2, synthetic peptide from UBN2, UniProt Q6ZU65]", "Binder?": "N"}
{"sequence": "RAAALPEETRSSRR [ZNF469, synthetic peptide from ZNF469, UniProt Q96JG9]", "Binder?": "N"}
{"sequence": "RGDGSDVSSQTPQT [ANKIB1, synthetic peptide from ANKIB1, UniProt Q9P2G1]", "Binder?": "N"}
{"sequence": "RSFVLPVESTQDVSSQ [CRYBG1, synthetic peptide from CRYBG1, UniProt Q9Y4K1]", "Binder?": "N"}
{"sequence": "SFRHPGYSTQTHVN [KLK7, synthetic peptide from KLK7, UniProt P49862]", "Binder?": "N"}
{"sequence": "SKTQQTFGSQTECT [TOGARAM1, synthetic peptide from TOGARAM1, UniProt Q9Y4F4]", "Binder?": "Weak^a (Weak binders are those with affinities >25 μM)"}
{"sequence": "SMATPSSSTQTSGT [MUC5B-3, synthetic peptide from MUC5B, UniProt Q9HC84, residues 2,673-2,686]", "Binder?": "N"}
{"sequence": "SPSPTGLPTQTPGF [ARAP3, synthetic peptide from ARAP3, UniProt Q8WWN8]", "Binder?": "Weak^a (Weak binders are those with affinities >25 μM)"}
{"sequence": "SSRSAFSPLQPNAS [DMRTA2, synthetic peptide from DMRTA2, UniProt Q96SC8]", "Binder?": "N"}
{"sequence": "STQTPSPAPASDMP [BSN-shift]", "Binder?": "N"}
{"sequence": "TEAKDQCSTQTDFN [EPAS1, synthetic peptide from EPAS1, UniProt Q99814]", "Binder?": "N"}
{"sequence": "TLQQPLELTASQLPAG [OTOG, synthetic peptide from OTOG, UniProt Q6ZRI0]", "Binder?": "N"}
{"sequence": "TLVSTASGTQTVFP [SH3RF2, synthetic peptide from SH3RF2, UniProt Q8TEC5]", "Binder?": "N"}
{"sequence": "TPTPTPTGTQTPTT [MUC2, synthetic peptide from MUC2, UniProt Q02817]", "Binder?": "N"}
{"sequence": "TQDDYFKDKRVHHFRRS [DAZL]", "Binder?": "N"}
{"sequence": "TTLPVLTSTATKST [MUC5B-1, synthetic peptide from MUC5B, UniProt Q9HC84, residues 3,049-3,062]", "Binder?": "N"}
{"molecular_target": "LC8 (UniProt P63167)", "assay": "ITC of synthetic peptides binding to LC8", "details": "Table 2, peptides synthesized from favorable sequence comparisons (PSSM); ITC, 25°C, pH 7.5; 500 μM peptide into 25 μM LC8"}
{"sequence": "AQPKQKLDTSIQTEYP [MT/HEL (TMV), synthetic peptide from MT/HEL (TMV), UniProt P03586]", "Binder?": "N"}
{"sequence": "DFTPAFADFGRQTPGG [EIF4G3, synthetic peptide from EIF4G3, UniProt O43432]", "Binder?": "N"}
{"sequence": "KPFMLDEEGDTQTEET [EIF2S2, synthetic peptide from EIF2S2, UniProt P20042]", "Binder?": "N"}
{"sequence": "KSVAENGDTDTQTSMF [ZZZ3, synthetic peptide from ZZZ3, UniProt Q8IYH5]", "Binder?": "N"}
{"sequence": "MDDIFTQCREGN [ILK, synthetic peptide from ILK, UniProt Q13418]", "Binder?": "N"}
{"sequence": "NKVFAKLHHNTQTFQA [CCL25, synthetic peptide from CCL25, UniProt O15444]", "Binder?": "N"}
{"sequence": "TQDDYFKDKRVHHFRRS [DAZL]", "Binder?": "N"}
{"sequence": "YELMASLDQPTQTVVM [EIF3C, synthetic peptide from EIF3C, UniProt Q99613]", "Binder?": "N"}
{"sequence": "YGPDGEETETQTCPP [PRSS36, synthetic peptide from PRSS36, UniProt Q5K4E3]", "Binder?": "N"}
{"sequence": "YGQIAPENGTQTPSP [ITGAX, synthetic peptide from ITGAX, UniProt P20702]", "Binder?": "N"}
{"sequence": "YHHRILEAKSIQTSPT [FMN2, synthetic peptide from FMN2, UniProt Q9NZ56]", "Binder?": "N"}
{"sequence": "YKIEIPTQCPSCGSK [DNLJ2 (phage T5), synthetic peptide from DNLJ2 (phage T5), UniProt Q5DMI6]", "Binder?": "N"}
{"molecular_target": "LC8 (UniProt P63167)", "assay": "ITC of synthetic peptides binding to LC8", "details": "pH 7.5"}
{"sequence": "PRATAEFSTQTPSP [BSN^II]", "pKd": 5.42}
{"molecular_target": "LC8 (UniProt P63167)", "assay": "not given", "details": "rotavirus A VP4 residues 644–651; ref Martínez-Moreno et al, 2003; cited from earlier work", "description": "We scanned Homo sapiens and viral proteomes for potential LC8-binding sequences based upon: (1) their propensity for disorder, (2) their sequence conservation across related species, and (3) the sequence’s similarity to known motifs. This final parameter used a PSSM based on the relative enrichment or depletion of each residue in a potential sequence, weighted by amino acid frequency. Enrichment and depletion PSSMs were populated using sequences that interact with LC8, verified either by mutagenesis or in vitro assays. ITC experiments were performed on 19 synthetic peptides with high-scoring s ..."}
{"sequence": "IDMSTQIG [rotavirus A VP4 residue position 644–651, site predicted and tested in a previous study]", "binding to LC8 (in words)": "did not bind LC8"}
